35 molecules from US9771370B2, “Compounds for the inhibition of indoleamine-2,3-dioxygenase” (Merck Patent GmbH, priority 2014, dated 2017) can be followed below.

What is called IC50 is the concentration that inhibits the measured activity by half.

Structures are written as SMILES.

Sequence of Recombinant human IDO (P14902 whole entry): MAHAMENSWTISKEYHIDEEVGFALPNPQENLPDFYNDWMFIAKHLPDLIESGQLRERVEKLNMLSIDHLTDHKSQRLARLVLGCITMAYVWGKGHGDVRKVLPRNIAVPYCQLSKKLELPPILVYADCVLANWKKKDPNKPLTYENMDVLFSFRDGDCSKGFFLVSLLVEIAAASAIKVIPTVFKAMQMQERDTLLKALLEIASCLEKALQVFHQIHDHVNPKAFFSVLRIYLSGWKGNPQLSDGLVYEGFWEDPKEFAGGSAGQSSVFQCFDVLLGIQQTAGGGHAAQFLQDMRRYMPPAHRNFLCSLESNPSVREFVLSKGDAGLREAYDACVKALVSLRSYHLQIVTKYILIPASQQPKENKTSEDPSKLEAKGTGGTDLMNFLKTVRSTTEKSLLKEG

In this assay the target is Recombinant human IDO (Homo sapiens, UniProt P14902). In words: Bridge-IT tryptophan fluorescence assay of human IDO-1 inhibition. It is filed as biochemical. The settings on record: recombinant human IDO 7.5 nM, L-tryptophan. The procedure, abridged:
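One variant ran L-Trp at 100 μM for 90 min at 37 °C. The other pre-incubated compound for 30 min at 25 °C, then ran 50 μM L-Trp for 60 min at 25 °C.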
In the case of `NC(=O)CC1CCC(F)(CCC2c3c(F)cccc3-c3cncn32)CC1` (single isomer, unassigned) [Compound 116c, 2-[4-Fluoro-4-[2-[6-fluoro-5H-imidazo[4,3-a]isoindol-5-yl]ethyl]cyclohexyl]acetamide], the IC50 is greater than 1000 nM.
Turning to `FC1(CCC2c3ncccc3-c3cncn32)CCOCC1` (single isomer, unassigned) [Compound 93b, 7-[2-(4-fluorooxan-4-yl)ethyl]-4,6,9-triazatricyclo[6.4.0.0^[2,6]]dodeca-1(8),2,4,9,11-pentaene], the IC50 is greater than 1000 nM.
`O=C(C1CCC(F)(CCC2c3c(Cl)cccc3-c3cncn32)CC1)N1CCCCC1` (single isomer, unassigned) [Compound 115b]: the IC50 is less than 100 nM.
As for `OC1CCC(F)(CCC2c3cccc(F)c3-c3cncn32)CC1` (single isomer, unassigned) [Compound 35a, 4-fluoro-4-(2-(9-fluoro-5H-imidazo[5,1-a]isoindol-5-yl)ethyl)cyclohexanol], the IC50 is greater than 1000 nM.
For the molecule `NC1CCC(F)(CCC2c3ccccc3-c3cncn32)CC1` (mixture of isomers) [Compound 104b, 4-fluoro-4-(2-[5H-imidazo[4,3-a]isoindol-5-yl]ethyl)cyclohexan-1-amine], the IC50 was in the range of 100 to 1000 nM.
On to `COc1ccc2c(n1)C(CC(O)C1CCC3(CC1)CC3)n1cncc1-2` (single isomer, unassigned) [Compound 53b, 2-[10-methoxy-4,6,9-triazatricyclo[6.4.0.0^[2,6]]dodeca-1(8),2,4,9,11-pentaen-7-yl]-1-[spiro[2.5]octan-6-yl]ethan-1-ol], for which the IC50 was less than 100 nM.
For the molecule `CC(C)(O)C1CCC(F)(CCC2c3c(Cl)cccc3-c3cncn32)CC1` (centres unmarked) [Compound 107b, 2-[4-(2-[6-chloro-5H-imidazo[4,3-a]isoindol-5-yl]ethyl)-4-fluorocyclohexyl]propan-2-ol], the half-maximal inhibitory concentration (IC50) was in the range of 100 to 1000 nM.
As to `OC1CCC(C(F)(F)CC2c3ccccc3-c3cncn32)CC1` (mixture of isomers) [Compound 74a, 4-(1,1-difluoro-2-[5H-imidazo[4,3-a]isoindol-5-yl]ethyl)cyclohexan-1-ol], the IC50 is less than 100 nM.
Under `CC1(C)CCC(F)(CCC2c3ncncc3-c3cncn32)CC1` (single isomer, unassigned) [Compound 66a, 7-[2-(1-fluoro-4,4-dimethylcyclohexyl)ethyl]-4,6,9,11-tetraazatricyclo[6.4.0.0^[2,6]]dodeca-1(8),2,4,9,11-pentaene] stands greater than 1000 nM.
Regarding `COc1ccc2c(n1)C(CC(N)C1CCCCC1)n1cncc1-2` (single isomer, unassigned) [Compound 118c, 1-cyclohexyl-2-[10-methoxy-4,6,9-triazatricyclo[6.4.0.0^[2,6]]dodeca-1(8),2,4,9,11-pentaen-7-yl]ethan-1-amine], the IC50 was greater than 1000 nM.
For the molecule `COc1ccc2c(n1)C(CC(N)C1CCC(C)(C)CC1)n1cncc1-2` (single isomer, unassigned) [Compound 119b, 1-(4,4-dimethylcyclohexyl)-2-[10-methoxy-4,6,9-triazatricyclo[6.4.0.0^[2,6]]dodeca-1(8),2,4,9,11-pentaen-7-yl]ethan-1-amine], the IC50 is greater than 1000 nM.
With `COc1ccc2c(n1)C(CC(O)C1CCCCC1)n1cncc1-2` (single isomer, unassigned) [Compound 39b, 1-Cyclohexyl-2-[10-methoxy-4,6,9-triazatricyclo[6.4.0.0^[2,6]]dodeca-1(8),2,4,9,11-pentaen-7-yl]ethan-1-ol], the IC50 lay within 100 to 1000 nM.
As for `FC(F)(CC1c2ccccc2-c2cncn21)C1CCCCC1` (racemic) [Compound 64, 5-(2-cyclohexyl-2,2-difluoroethyl)-5H-imidazo[4,3-a]isoindole], the IC50 was 100 to 1000 nM.
Under `O[C@H]1CC[C@](F)(CC[C@@H]2c3ccccc3-c3cncn32)CC1` [Compound 14a, (1R,4s)-4-(2-((R)-5H-imidazo[5,1-a]isoindol-5-yl)ethyl)-4-fluorocyclohexan-1-ol] stands greater than 1000 nM.
With `OC(CC1c2ncccc2-c2cncn21)C1CCC(C2(O)CC2)CC1` (single isomer, unassigned) [Compound 117c, 1-[4-[1-hydroxy-2-[4,6,9-triazatricyclo[6.4.0.0^[2,6]]dodeca-1(8),2,4,9,11-pentaen-7-yl]ethyl]cyclohexyl]cyclopropan-1-ol], the IC50 is greater than 1000 nM.
For the molecule `Fc1ccc2c(n1)C(CCC1(F)CCCCC1)n1cncc1-2` (centres unmarked) [Compound 17, 10-fluoro-7-[2-(1-fluorocyclohexyl)ethyl]-4,6,9-triazatricyclo[6.4.0.0^[2,6]]dodeca-1(8),2,4,9,11-pentaene], the IC50 lay within 100 to 1000 nM.
Turning to `OC(CC1c2cnccc2-c2cncn21)C1CCCCC1` (centres unmarked) [Compound 9a, 1-Cyclohexyl-2-[4,6,10-triazatricyclo[6.4.0.0^[2,6]]dodeca-1(8),2,4,9,11-pentaen-7-yl]ethan-1-ol], the IC50 is greater than 1000 nM.
For the molecule `OCC1CCC(F)(CCC2c3c(F)cccc3-c3cncn32)CC1` (single isomer, unassigned) [Compound 84d, [4-fluoro-4-[2-[6-fluoro-5H-imidazo[4,3-a]isoindol-5-yl]ethyl]cyclohexyl]methanol], the half-inhibitory concentration (IC50) is less than 100 nM.
Regarding `OC(CC1c2nc(Cl)ccc2-c2cncn21)C1CCC(F)(F)CC1` (centres unmarked) [Compound 52b, 2-[10-chloro-4,6,9-triazatricyclo[6.4.0.0^[2,6]]dodeca-1(8),2,4,9,11-pentaen-7-yl]-1-(4,4-difluorocyclohexyl)ethan-1-ol], the IC50 lay in the range of 100 to 1000 nM.
With `CC(C)[C@H](N)C(=O)N1CCC(F)(CCC2c3ccccc3-c3cncn32)CC1` (single isomer, unassigned) [Compound 89b], the IC50 was greater than 1000 nM.
`OC1(C2CCC(F)(CCC3c4c(F)cccc4-c4cncn43)CC2)CC1` (centres unmarked) [Compound 85b, 1-[4-fluoro-4-(2-[6-fluoro-5H-imidazo[4,3-a]isoindol-5-yl]ethyl)cyclohexyl]cyclopropan-1-ol]: the IC50 fell in the range of 100 to 1000 nM.
For `O=C(C1CCC(F)(CCC2c3c(F)cccc3-c3cncn32)CC1)N1CCCCC1` (centres unmarked) [Compound 110a], the IC50 was less than 100 nM.
In the case of `OC(CC1c2ncncc2-c2cncn21)C1CCCCC1` (mixture of isomers) [Compound 67d, 1-cyclohexyl-2-[4,6,9,11-tetraazatricyclo[6.4.0.0^[2,6]]dodeca-1(8),2,4,9,11-pentaen-7-yl]ethan-1-ol], the IC50 was greater than 1000 nM.
The value for `NC(=O)C1CCC(F)(CCC2c3c(F)cccc3-c3cncn32)CC1` (single isomer, unassigned) [Compound 81d, 4-fluoro-4-[2-[6-fluoro-5H-imidazo[4,3-a]isoindol-5-yl]ethyl]cyclohexane-1-carboxamide] was less than 100 nM; that for `OC1CCC(F)(CCC2c3c(F)ccc(F)c3-c3cncn32)CC1` (single isomer, unassigned) [Compound 38c, 4-(2-(6,9-difluoro-5H-imidazo[5,1-a]isoindol-5-yl)ethyl)-4-fluorocyclohexanol] was greater than 1000 nM.
For the molecule `OC1CCC(F)(CCC2c3c(F)cccc3-c3cncn32)CC1` (single isomer, unassigned) [Compound 16b, 4-fluoro-4-(2-(6-fluoro-5H-imidazo[5,1-a]isoindol-5-yl)ethyl)cyclohexanol], the IC50 was 100 to 1000 nM.
Turning to `OC(CC1c2ncccc2-c2cncn21)C1(F)CCCCC1` (single isomer, unassigned) [Compound 109c, 1-(1-fluorocyclohexyl)-2-[4,6,9-triazatricyclo[6.4.0.0^[2,6]]dodeca-1(8),2,4,9,11-pentaen-7-yl]ethan-1-ol], the IC50 was in the range of 100 to 1000 nM.
For `Fc1cccc2c1C(CCC1(F)CCOCC1)n1cncc1-2` (single isomer, unassigned) [Compound 95a, 6-fluoro-5-[2-(4-fluorooxan-4-yl)ethyl]-5H-imidazo[4,3-a]isoindole], the IC50 was greater than 1000 nM.
`COc1ccc2c(n1)C(CC(N)C1CCCCC1)n1cncc1-2` (mixture of isomers) [Compound 118a, 1-cyclohexyl-2-[10-methoxy-4,6,9-triazatricyclo[6.4.0.0^[2,6]]dodeca-1(8),2,4,9,11-pentaen-7-yl]ethan-1-amine]: the IC50 was greater than 1000 nM.
Consider `O=C(O)C1CCC(F)(CCC2c3c(F)cccc3-c3cncn32)CC1` (single isomer, unassigned) [Compound 80b, 4-fluoro-4-(2-[6-fluoro-5H-imidazo[4,3-a]isoindol-5-yl]ethyl)cyclohexane-1-carboxylic acid], for which the IC50 fell in the range of 100 to 1000 nM.
As to `CC1(C)CCC(F)(CCC2c3ncccc3-c3cncn32)CC1` (single isomer, unassigned) [Compound 48b, 7-[2-(1-fluoro-4,4-dimethylcyclohexyl)ethyl]-4,6,9-triazatricyclo[6.4.0.0^[2,6]]dodeca-1(8),2,4,9,11-pentaene], the concentration for half-maximal inhibition (IC50) was greater than 1000 nM.
`FC1(CCC2c3cnccc3-c3cncn32)CCCCC1` (single isomer, unassigned) [Compound 10a, 7-[2-(1-fluorocyclohexyl)ethyl]-4,6,10-triazatricyclo[6.4.0.0^[2,6]]dodeca-1(8),2,4,9,11-pentaene]: the IC50 was greater than 1000 nM.
Take `NC(=O)CC1CCC(F)(CCC2c3c(F)cccc3-c3cncn32)CC1` (single isomer, unassigned) [Compound 116d, 2-[4-Fluoro-4-[2-[6-fluoro-5H-imidazo[4,3-a]isoindol-5-yl]ethyl]cyclohexyl]acetamide]: the IC50 was less than 100 nM.
For the molecule `NC(=O)CC1CCC(F)(CCC2c3c(Cl)cccc3-c3cncn32)CC1` (single isomer, unassigned) [Compound 113a, 2-[4-[2-[6-chloro-5H-imidazo[4,3-a]isoindol-5-yl]ethyl]-4-fluorocyclohexyl]acetamide], the IC50 was less than 100 nM.
`FC1(CCC2c3nc(C(F)(F)F)ccc3-c3cncn32)CCCCC1` (single isomer, unassigned) [Compound 76a, 7-[2-(1-fluorocyclohexyl)ethyl]-10-(trifluoromethyl)-4,6,9-triazatricyclo[6.4.0.0^[2,6]]dodeca-1(8),2,4,9,11-pentaene]: the IC50 is greater than 1000 nM.
